From ChEMBL document CHEMBL1201862, “PubChem BioAssay data set” (2004) come the findings set out here.

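96-well plates; 48 h exposure; 5 concentrations. Endpoints by linear interpolation between flanking doses. Not reached: highest tested concentration assigned. GI50 = concentration required for 50% inhibition of growth.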 Calls of active or inactive are those of the source. Cut-off read from the data, not from the text of the source: active = GI50 up to about 1.1 µM and inactive = higher.

Test systems include HT-29; NCI/ADR-RES; NCI-H460; T47D; A498; IGROV-1; SK-OV-3; OVCAR-3; HCT-116; SF-295; Hs-578T; NCI-H23; UACC-62; TK-10; OVCAR-5; HCT-15; RPMI-8226; EKVX; ACHN; MOLT-4.
Assay in all cases: NCI-60 cell line screen, 48 h

For `COc1cc2c(cc1O)[C@@H]1Cc3c(cc(OC)c(OC)c3Oc3cc4c(cc3OC)CCN(C)[C@@H]4Cc3ccc(O)cc3)[C@H](C2)N1C`, the GI50 in the experiment with HT-29 is 35.4 µM (inactive); in the experiment on NCI/ADR-RES, > 100 µM (inactive); with NCI-H460, 53.7 µM (inactive); in the experiment with T47D, 36.1 µM (inactive); in the experiment on A498, 37 µM (inactive); with IGROV-1, 82.2 µM (inactive). The GI50 in the experiment with SK-OV-3 was > 94 µM (inactive); with OVCAR-3, > 100 µM (inactive); with HCT-116 it was 48.1 µM (inactive); in the experiment with SF-295, 46 µM (inactive); with Hs-578T it was 46 µM (inactive); in the experiment with NCI-H23, > 100 µM (inactive). The GI50 in the experiment on UACC-62 is > 55.8 µM (inactive); in the experiment on TK-10 it was > 72.3 µM (inactive); in the experiment with OVCAR-5, > 100 µM (inactive); in the experiment with HCT-15 it was more than 78.9 µM; with RPMI-8226 it was 27.9 µM (inactive); in the experiment on EKVX, > 100 µM (inactive). Also, the GI50 in the experiment on ACHN is > 83.2 µM (inactive); in the experiment on MOLT-4, 31 µM (inactive).

Take `COc1ccc(/C=N/c2nc3cc4sc(/N=C/c5ccc(OC)cc5)nc4cc3s2)cc1`: the GI50 was 23.1 µM (inactive) with HT-29; 23.4 µM (inactive) in the experiment on NCI/ADR-RES; 5 µM (inactive) in the experiment with NCI-H460; > 40.9 µM (inactive) with T47D; > 100 µM (inactive) in the experiment on A498; 57.4 µM (inactive) in the experiment on IGROV-1. The GI50 is 49.7 µM (inactive) with SK-OV-3; 23.6 µM (inactive) in the experiment on OVCAR-3; 18.4 µM (inactive) with HCT-116; 43.6 µM (inactive) in the experiment on SF-295; > 32.7 µM (inactive) in the experiment on Hs-578T; 15.9 µM (inactive) in the experiment with NCI-H23. The GI50 is 27.3 µM (inactive) in the experiment on UACC-62; 30.9 µM (inactive) in the experiment with TK-10; > 81.5 µM (inactive) in the experiment with OVCAR-5; 19.5 µM in the experiment on HCT-15; 41.8 µM (inactive) in the experiment on RPMI-8226; 21.2 µM (inactive) with EKVX. For the same molecule, the GI50 was 43.7 µM (inactive) in the experiment on ACHN and 8.15 µM (inactive) in the experiment with MOLT-4.

Turning to `COC(=O)C1=C(O)C(C(=O)OC)[C@]2(O)[C@H](C(=O)OC)[C@H]1C[C@@H](c1ccc(Cl)cc1)[C@H]2C(=O)OC` (stereo not given in full), the GI50 in the experiment with HT-29 is 12 µM (inactive); in the experiment with NCI/ADR-RES, 3.29 µM (inactive); with NCI-H460 it was 5.45 µM (inactive); in the experiment on T47D, 6.58 µM (inactive); with A498 it was 11.7 µM (inactive); with IGROV-1, 14.5 µM (inactive). Moreover, the GI50 in the experiment on SK-OV-3 is 2.7 µM (inactive); in the experiment on OVCAR-3, 2.94 µM (inactive); in the experiment with HCT-116, 5.28 µM (inactive); with SF-295, 4.28 µM (inactive); in the experiment with Hs-578T it was 3.89 µM (inactive); in the experiment on NCI-H23, 7.18 µM (inactive). In addition, the GI50 in the experiment on UACC-62 is 7.69 µM (inactive); in the experiment on TK-10, 13 µM (inactive); with OVCAR-5, 14.5 µM (inactive); in the experiment on HCT-15 it was 4.59 µM; in the experiment with RPMI-8226, 4.06 µM (inactive); in the experiment with EKVX, 10.9 µM (inactive). The values for the GI50 in the experiment on ACHN and with MOLT-4 were 7.45 µM (inactive) and 3.64 µM (inactive), respectively.

As for `O=c1c2ncn(CCCl)c2n(-c2ccccc2)c(=S)n1-c1ccccc1`, the GI50 with HT-29, in the experiment on NCI/ADR-RES, with NCI-H460, in the experiment with T47D, in the experiment with A498 and with IGROV-1 was > 100 µM (inactive) in each case. Also, the GI50 was > 100 µM (inactive) with SK-OV-3; > 100 µM (inactive) in the experiment with OVCAR-3; > 100 µM (inactive) in the experiment on HCT-116; > 100 µM (inactive) in the experiment on SF-295; 69.5 µM (inactive) in the experiment with Hs-578T; > 100 µM (inactive) in the experiment with NCI-H23. The GI50 was > 100 µM (inactive) in the experiment on UACC-62; > 100 µM (inactive) in the experiment with TK-10; > 100 µM (inactive) in the experiment with OVCAR-5; more than 100 µM in the experiment on HCT-15; > 100 µM (inactive) in the experiment on RPMI-8226; > 100 µM (inactive) in the experiment with EKVX. The GI50 with ACHN and in the experiment on MOLT-4 was > 100 µM (inactive) throughout.

Take `C#CCOCC12C=CC(O1)C1COC(=O)C12` (stereo not given): the GI50 in the experiment with HT-29, in the experiment with NCI/ADR-RES, in the experiment on NCI-H460, in the experiment with T47D, in the experiment with A498 and with IGROV-1 was > 100 µM (inactive) throughout. In addition, the GI50 in the experiment with SK-OV-3, in the experiment on OVCAR-3, in the experiment on HCT-116, in the experiment with SF-295, in the experiment on Hs-578T and with NCI-H23 was > 100 µM (inactive) each time. Moreover, the GI50 was > 100 µM (inactive) in the experiment on UACC-62; > 100 µM (inactive) with TK-10; > 100 µM (inactive) in the experiment with OVCAR-5; more than 100 µM in the experiment with HCT-15; > 100 µM (inactive) in the experiment with RPMI-8226; > 100 µM (inactive) with EKVX. The GI50 with ACHN and with MOLT-4 was > 100 µM (inactive) throughout.

Regarding `CCN(CC)CCNc1ccc([N+](=O)[O-])c2nc3ccccc3c(N)c12`, the GI50 was 0.359 µM (active) in the experiment with HT-29; 0.401 µM (active) in the experiment on NCI/ADR-RES; 0.291 µM (active) in the experiment with NCI-H460; 0.662 µM (active) with T47D; 1.22 µM (inactive) in the experiment with A498; 0.377 µM (active) with IGROV-1. Further, the GI50 is 0.726 µM (active) in the experiment with SK-OV-3; 0.701 µM (active) in the experiment on OVCAR-3; 0.127 µM (active) with HCT-116; 0.498 µM (active) in the experiment with SF-295; 0.175 µM (active) in the experiment on Hs-578T; 0.485 µM (active) in the experiment with NCI-H23. For the same molecule, the GI50 with UACC-62 was 1.01 µM (active); in the experiment with TK-10 it was 0.685 µM (active); with OVCAR-5, 0.621 µM (active); with HCT-15, 0.41 µM; in the experiment with RPMI-8226, 0.311 µM (active); with EKVX, 0.428 µM (active). Besides, the GI50 in the experiment on ACHN was 0.155 µM (active); in the experiment on MOLT-4, 0.223 µM (active).

As to `CCOC(=O)c1csc(-c2cn(C)c3c2C(=O)C(OC)=CC3=O)n1`, the GI50 was 48.2 µM (inactive) in the experiment with HT-29; 22.5 µM (inactive) in the experiment with NCI/ADR-RES; 8.73 µM (inactive) in the experiment with NCI-H460; > 95.1 µM (inactive) in the experiment on T47D; 24.3 µM (inactive) in the experiment on A498; > 46.1 µM (inactive) in the experiment on IGROV-1. Further, the GI50 was 69 µM (inactive) in the experiment with SK-OV-3; 5.82 µM (inactive) in the experiment on OVCAR-3; 18.3 µM (inactive) with HCT-116; 25 µM (inactive) with SF-295; 21.2 µM (inactive) with Hs-578T; 11.3 µM (inactive) in the experiment on NCI-H23. Also, the GI50 with UACC-62 was 21.2 µM (inactive); in the experiment with TK-10 it was > 100 µM (inactive); in the experiment with OVCAR-5 it was 31.1 µM (inactive); with HCT-15, 9.75 µM; in the experiment with RPMI-8226, 9.53 µM (inactive); in the experiment on EKVX, > 86.3 µM (inactive). In addition, the values for the GI50 with ACHN and with MOLT-4 were 34.8 µM (inactive) and > 100 µM (inactive), respectively.

Take `COC(=O)c1ccccc1C1CN=NC12Cc1cc(C)ccc1C2=O` (stereo not given): the GI50 in the experiment with HT-29 was > 100 µM (inactive); in the experiment on NCI/ADR-RES, 49.9 µM (inactive); in the experiment on NCI-H460, > 100 µM (inactive); in the experiment with T47D, > 100 µM (inactive); in the experiment with A498, > 100 µM (inactive); with IGROV-1 it was > 100 µM (inactive). For the same molecule, the GI50 is > 100 µM (inactive) in the experiment with SK-OV-3; 57 µM (inactive) in the experiment with OVCAR-3; > 100 µM (inactive) in the experiment on HCT-116; > 100 µM (inactive) with SF-295; 49 µM (inactive) in the experiment on Hs-578T; > 100 µM (inactive) with NCI-H23. The GI50 was > 100 µM (inactive) with UACC-62; 16.6 µM (inactive) in the experiment on TK-10; > 100 µM (inactive) with OVCAR-5; more than 100 µM in the experiment on HCT-15; > 100 µM (inactive) in the experiment with RPMI-8226; > 100 µM (inactive) with EKVX. The GI50 in the experiment on ACHN and in the experiment with MOLT-4 was > 100 µM (inactive) throughout.

For the molecule `[BH3-][P+]1(CC[P@@+]([BH3-])(c2ccccc2)c2ccccc2OC)[C@@H](C)[C@@H](O)[C@H](O)[C@@H]1C` (stereo not given in full), the GI50 with HT-29 is 22.6 µM (inactive); with NCI/ADR-RES, 16.5 µM (inactive); in the experiment with NCI-H460 it was 16.4 µM (inactive); with T47D, 15.9 µM (inactive); in the experiment on A498, 18 µM (inactive); in the experiment on IGROV-1, 17.3 µM (inactive). Further, the GI50 with SK-OV-3 was 22.8 µM (inactive); in the experiment on OVCAR-3, 16.1 µM (inactive); in the experiment with HCT-116, 17.7 µM (inactive); in the experiment with SF-295, 15.8 µM (inactive); with Hs-578T it was 10.3 µM (inactive); with NCI-H23 it was 16 µM (inactive). Besides, the GI50 with UACC-62 was 14.8 µM (inactive); in the experiment with TK-10 it was 17.8 µM (inactive); in the experiment on OVCAR-5, 18.1 µM (inactive); in the experiment on HCT-15 it was 17.5 µM; with RPMI-8226 it was 23.4 µM (inactive); in the experiment with EKVX, 12.4 µM (inactive). Also, the GI50 is 17.6 µM (inactive) in the experiment with ACHN and 20.4 µM (inactive) with MOLT-4.

Turning to `CSc1nc(Cl)c2c(n1)Sc1nc3cc4c(cc3n1C2O)OCCO4` (stereo not given), the GI50 in the experiment with HT-29 was 0.0226 µM (active); in the experiment with NCI/ADR-RES, 0.149 µM (active); in the experiment with NCI-H460, 0.0897 µM (active); in the experiment on T47D it was 15.4 µM (inactive); in the experiment with A498, 0.708 µM (active); in the experiment on IGROV-1, 0.138 µM (active). The GI50 was 0.445 µM (active) in the experiment with SK-OV-3; 0.137 µM (active) in the experiment on OVCAR-3; 0.0146 µM (active) in the experiment on HCT-116; 0.379 µM (active) with SF-295; 0.295 µM (active) in the experiment on Hs-578T; 0.39 µM (active) in the experiment on NCI-H23. The GI50 is 0.125 µM (active) in the experiment with UACC-62; 0.962 µM (active) in the experiment with TK-10; 4.03 µM (inactive) with OVCAR-5; 0.104 µM in the experiment on HCT-15; 0.0318 µM (active) with RPMI-8226; 15.2 µM (inactive) in the experiment on EKVX. Further, the GI50 in the experiment with ACHN is 0.131 µM (active); with MOLT-4 it was 0.0348 µM (active).
